Results as given in PMC6199744, “Development of Chemical Proteomics for the Folateome and Analysis of the Kinetoplastid Folateome” (ACS Infectious Diseases, 2018).
Like-named read-outs stand apart in the source and are kept apart here.

What was measured:
Type in all cases: binding
[1] = molecular target: T1, HeLa cell extract proteins (Homo sapiens, UniProt P28074)
T1 construct: endogenous in cells; host or cells: HeLa cell extract
T1 sequence (P28074 60-263): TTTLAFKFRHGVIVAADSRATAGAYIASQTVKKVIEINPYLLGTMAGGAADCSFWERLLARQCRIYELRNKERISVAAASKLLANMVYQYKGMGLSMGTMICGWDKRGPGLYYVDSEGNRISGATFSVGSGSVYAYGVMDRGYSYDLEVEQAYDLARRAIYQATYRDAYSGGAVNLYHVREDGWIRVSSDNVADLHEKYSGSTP

[2] = molecular target: T2, HeLa cell extract proteins (Homo sapiens, UniProt P30101)
T2 construct: endogenous in cells; host or cells: HeLa cell extract
T2 sequence (P30101 25-505): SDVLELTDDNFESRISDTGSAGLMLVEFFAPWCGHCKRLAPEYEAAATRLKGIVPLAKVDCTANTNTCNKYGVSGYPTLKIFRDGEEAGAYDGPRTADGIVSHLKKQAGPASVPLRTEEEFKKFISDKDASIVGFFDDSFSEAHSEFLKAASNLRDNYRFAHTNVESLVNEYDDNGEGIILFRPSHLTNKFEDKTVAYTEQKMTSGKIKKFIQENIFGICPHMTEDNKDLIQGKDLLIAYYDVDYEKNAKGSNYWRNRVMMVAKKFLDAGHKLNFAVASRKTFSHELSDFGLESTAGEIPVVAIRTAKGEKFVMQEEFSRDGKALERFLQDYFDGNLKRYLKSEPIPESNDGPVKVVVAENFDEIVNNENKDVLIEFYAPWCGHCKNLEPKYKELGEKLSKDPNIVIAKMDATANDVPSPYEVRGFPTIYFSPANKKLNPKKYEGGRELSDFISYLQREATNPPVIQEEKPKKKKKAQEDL

[3] = molecular target: T3, HeLa cell extract proteins (Homo sapiens, UniProt P31943)
T3 construct: endogenous in cells; host or cells: HeLa cell extract
T3 sequence (P31943 1-449): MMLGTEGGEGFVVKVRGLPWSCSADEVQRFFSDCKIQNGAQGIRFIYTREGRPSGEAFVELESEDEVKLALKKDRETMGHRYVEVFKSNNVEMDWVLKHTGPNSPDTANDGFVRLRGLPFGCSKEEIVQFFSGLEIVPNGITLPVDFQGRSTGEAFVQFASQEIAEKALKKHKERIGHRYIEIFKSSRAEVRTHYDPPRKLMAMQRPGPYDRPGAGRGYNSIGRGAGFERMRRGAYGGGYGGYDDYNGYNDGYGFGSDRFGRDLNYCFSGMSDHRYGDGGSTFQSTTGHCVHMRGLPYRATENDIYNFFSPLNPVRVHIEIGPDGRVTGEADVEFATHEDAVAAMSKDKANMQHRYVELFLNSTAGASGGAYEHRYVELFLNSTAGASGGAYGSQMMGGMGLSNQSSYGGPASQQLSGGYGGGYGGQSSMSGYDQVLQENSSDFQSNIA

[4] = molecular target: T4, HeLa cell extract proteins (Homo sapiens, UniProt P41091)
T4 construct: endogenous in cells; host or cells: HeLa cell extract
T4 sequence (P41091 whole entry): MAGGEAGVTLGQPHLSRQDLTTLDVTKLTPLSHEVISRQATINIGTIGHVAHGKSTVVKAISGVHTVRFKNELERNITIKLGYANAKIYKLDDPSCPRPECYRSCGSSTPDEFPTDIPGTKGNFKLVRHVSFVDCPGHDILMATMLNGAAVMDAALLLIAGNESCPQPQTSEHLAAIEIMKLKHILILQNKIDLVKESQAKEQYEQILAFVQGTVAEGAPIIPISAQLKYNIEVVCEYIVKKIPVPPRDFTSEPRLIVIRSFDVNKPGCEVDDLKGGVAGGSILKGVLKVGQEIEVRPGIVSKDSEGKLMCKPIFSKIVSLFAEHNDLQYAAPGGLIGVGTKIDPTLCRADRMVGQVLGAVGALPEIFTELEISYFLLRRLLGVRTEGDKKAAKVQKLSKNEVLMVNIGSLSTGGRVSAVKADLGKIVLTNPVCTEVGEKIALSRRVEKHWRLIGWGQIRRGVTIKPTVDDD

[5] = molecular target: T5, HeLa cell extract proteins (Homo sapiens, UniProt P55010)
T5 construct: endogenous in cells; host or cells: HeLa cell extract
T5 sequence (P55010 whole entry): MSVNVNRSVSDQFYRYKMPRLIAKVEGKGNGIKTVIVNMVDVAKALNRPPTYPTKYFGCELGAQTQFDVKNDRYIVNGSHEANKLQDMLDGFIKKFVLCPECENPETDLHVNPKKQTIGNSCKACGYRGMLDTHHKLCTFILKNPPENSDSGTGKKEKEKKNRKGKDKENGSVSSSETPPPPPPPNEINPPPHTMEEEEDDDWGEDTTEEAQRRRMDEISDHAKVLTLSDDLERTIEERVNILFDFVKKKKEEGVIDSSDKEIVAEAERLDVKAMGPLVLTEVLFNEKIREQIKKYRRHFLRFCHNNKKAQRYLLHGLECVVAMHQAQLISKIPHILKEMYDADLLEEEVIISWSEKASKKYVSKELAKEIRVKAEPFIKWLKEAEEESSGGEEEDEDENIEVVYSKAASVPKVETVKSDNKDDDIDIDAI

[6] = molecular target: T6, HeLa cell extract proteins (Homo sapiens, UniProt Q14764)
T6 construct: endogenous in cells; host or cells: HeLa cell extract
T6 sequence (Q14764 whole entry): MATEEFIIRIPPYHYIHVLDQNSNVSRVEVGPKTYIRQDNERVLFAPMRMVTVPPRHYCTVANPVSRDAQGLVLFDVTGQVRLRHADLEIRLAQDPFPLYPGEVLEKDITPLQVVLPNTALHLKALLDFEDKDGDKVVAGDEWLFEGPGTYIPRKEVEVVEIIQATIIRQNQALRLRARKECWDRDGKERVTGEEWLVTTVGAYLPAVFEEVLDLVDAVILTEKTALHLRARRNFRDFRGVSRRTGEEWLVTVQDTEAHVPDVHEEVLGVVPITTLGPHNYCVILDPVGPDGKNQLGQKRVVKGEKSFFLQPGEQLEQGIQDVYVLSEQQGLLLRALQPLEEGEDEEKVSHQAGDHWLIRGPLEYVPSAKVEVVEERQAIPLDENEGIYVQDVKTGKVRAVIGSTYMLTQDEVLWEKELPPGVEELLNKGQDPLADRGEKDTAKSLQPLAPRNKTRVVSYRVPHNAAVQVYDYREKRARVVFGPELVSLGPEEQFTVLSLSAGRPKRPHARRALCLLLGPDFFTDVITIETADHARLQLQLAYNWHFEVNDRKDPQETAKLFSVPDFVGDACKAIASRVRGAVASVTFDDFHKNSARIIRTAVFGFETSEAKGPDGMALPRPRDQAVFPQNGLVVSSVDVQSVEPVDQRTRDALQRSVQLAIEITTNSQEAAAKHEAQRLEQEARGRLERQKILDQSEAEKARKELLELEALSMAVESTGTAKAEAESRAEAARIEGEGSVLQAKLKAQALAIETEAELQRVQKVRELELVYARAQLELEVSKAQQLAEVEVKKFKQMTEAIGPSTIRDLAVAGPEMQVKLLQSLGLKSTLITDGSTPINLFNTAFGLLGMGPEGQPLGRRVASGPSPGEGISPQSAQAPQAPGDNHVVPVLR

[7] = molecular target: T7, HeLa cell extract proteins (Homo sapiens, UniProt Q16531)
T7 construct: endogenous in cells; host or cells: HeLa cell extract
T7 sequence (Q16531 whole entry): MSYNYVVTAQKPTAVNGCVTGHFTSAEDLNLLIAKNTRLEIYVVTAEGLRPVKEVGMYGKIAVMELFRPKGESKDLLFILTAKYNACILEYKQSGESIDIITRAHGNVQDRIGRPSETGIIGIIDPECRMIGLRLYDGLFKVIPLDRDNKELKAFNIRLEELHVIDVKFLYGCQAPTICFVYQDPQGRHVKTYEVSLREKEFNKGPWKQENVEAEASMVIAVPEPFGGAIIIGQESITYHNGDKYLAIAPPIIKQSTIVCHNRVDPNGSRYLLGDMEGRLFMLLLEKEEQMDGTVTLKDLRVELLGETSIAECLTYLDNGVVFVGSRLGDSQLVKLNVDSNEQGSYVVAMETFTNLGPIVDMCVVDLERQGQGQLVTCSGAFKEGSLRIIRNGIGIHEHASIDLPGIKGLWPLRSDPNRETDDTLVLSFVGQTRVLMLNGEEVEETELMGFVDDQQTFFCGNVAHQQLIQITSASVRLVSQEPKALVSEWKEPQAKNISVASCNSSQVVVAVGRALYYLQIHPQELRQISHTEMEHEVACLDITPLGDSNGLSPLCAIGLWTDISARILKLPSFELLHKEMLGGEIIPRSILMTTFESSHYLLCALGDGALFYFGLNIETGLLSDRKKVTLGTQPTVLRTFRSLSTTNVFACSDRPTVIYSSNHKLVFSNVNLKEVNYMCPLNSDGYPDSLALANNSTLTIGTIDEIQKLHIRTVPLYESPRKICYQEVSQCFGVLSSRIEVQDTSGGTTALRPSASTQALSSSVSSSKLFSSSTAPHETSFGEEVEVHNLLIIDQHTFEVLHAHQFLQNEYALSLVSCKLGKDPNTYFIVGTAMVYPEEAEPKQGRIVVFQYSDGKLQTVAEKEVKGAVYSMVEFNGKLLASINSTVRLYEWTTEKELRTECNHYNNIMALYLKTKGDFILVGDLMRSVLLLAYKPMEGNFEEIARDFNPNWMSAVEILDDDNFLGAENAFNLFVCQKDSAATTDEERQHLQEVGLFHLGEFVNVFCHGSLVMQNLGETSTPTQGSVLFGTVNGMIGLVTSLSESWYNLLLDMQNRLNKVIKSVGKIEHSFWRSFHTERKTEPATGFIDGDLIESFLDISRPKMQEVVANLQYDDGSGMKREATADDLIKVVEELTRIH

[8] = molecular target: T8, HeLa cell extract proteins (Homo sapiens, UniProt Q5T8D3)
T8 construct: endogenous in cells; host or cells: HeLa cell extract
T8 sequence (Q5T8D3 1-534): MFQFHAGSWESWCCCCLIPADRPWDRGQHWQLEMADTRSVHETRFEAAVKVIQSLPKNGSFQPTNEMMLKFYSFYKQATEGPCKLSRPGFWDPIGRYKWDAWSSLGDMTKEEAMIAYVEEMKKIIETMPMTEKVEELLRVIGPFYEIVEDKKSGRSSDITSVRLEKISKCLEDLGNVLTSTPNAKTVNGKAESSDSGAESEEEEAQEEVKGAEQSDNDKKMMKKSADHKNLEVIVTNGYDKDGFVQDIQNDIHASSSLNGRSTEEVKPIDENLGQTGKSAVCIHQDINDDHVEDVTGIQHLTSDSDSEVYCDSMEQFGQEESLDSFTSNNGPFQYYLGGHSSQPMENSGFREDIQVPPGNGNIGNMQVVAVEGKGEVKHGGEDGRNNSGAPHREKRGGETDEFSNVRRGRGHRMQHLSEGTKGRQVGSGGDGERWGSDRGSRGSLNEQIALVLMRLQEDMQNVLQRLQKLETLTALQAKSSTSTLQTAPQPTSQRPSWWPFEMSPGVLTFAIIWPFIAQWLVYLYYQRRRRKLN

[9] = molecular target: T9, HeLa cell extract proteins (Homo sapiens, UniProt Q8NEZ5)
T9 construct: endogenous in cells; host or cells: HeLa cell extract
T9 sequence (Q8NEZ5 1-403): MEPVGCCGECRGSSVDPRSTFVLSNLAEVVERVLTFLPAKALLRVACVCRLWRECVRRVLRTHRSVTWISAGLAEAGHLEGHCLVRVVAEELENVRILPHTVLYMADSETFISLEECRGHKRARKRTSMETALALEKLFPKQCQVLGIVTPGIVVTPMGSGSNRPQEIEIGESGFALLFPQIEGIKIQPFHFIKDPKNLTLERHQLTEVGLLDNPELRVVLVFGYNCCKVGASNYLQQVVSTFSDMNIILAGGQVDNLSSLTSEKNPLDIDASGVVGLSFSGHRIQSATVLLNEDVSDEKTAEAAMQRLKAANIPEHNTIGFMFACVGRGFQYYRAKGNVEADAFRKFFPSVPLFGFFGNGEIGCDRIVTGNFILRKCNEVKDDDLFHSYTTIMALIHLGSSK

[10] = molecular target: T10, HeLa cell extract proteins (Homo sapiens, UniProt Q9NQR4)
T10 construct: endogenous in cells; host or cells: HeLa cell extract
T10 sequence (Q9NQR4 1-276): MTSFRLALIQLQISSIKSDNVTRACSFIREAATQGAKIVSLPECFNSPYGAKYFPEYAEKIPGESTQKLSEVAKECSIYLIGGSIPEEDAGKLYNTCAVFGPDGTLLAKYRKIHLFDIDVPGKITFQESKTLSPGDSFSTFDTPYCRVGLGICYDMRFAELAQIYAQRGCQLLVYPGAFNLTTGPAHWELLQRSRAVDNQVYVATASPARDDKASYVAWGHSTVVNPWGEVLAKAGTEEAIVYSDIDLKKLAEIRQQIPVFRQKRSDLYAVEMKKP

| SMILES | fold changes relative to vehicle control ([1]; protein PSMB5, HeLa) | fold changes relative to vehicle control ([2]; protein PDIA3, HeLa) | fold changes relative to vehicle control ([3]; HeLa, protein HNRNPH1) | fold changes relative to vehicle control ([4]; protein EIF2S3, HeLa) | fold changes relative to vehicle control [5] | fold changes relative to vehicle control ([6]; HeLa, protein MVP) | fold changes relative to vehicle control ([7]; HeLa, protein DDB1) | fold changes relative to vehicle control ([8]; HeLa, protein ACBD5) | fold changes relative to vehicle control ([9]; captured protein FBXO22, HeLa) | fold changes relative to vehicle control ([10]; protein NIT2, HeLa) | fold changes relative to vehicle control ([1]; HeLa, protein PSMB5) | fold changes relative to vehicle control ([3]; HeLa, captured protein HNRNPH1) | fold changes relative to vehicle control ([5]; HeLa, captured protein EIF5) | fold changes relative to vehicle control ([8]; HeLa, captured protein ACBD5) | fold changes relative to vehicle control ([9]; HeLa, protein FBXO22) | fold changes relative to vehicle control ([10]; HeLa, captured protein NIT2) | also measured |
| --- | --- | --- | --- | --- | --- | --- | --- | --- | --- | --- | --- | --- | --- | --- | --- | --- | --- |
| Nc1nc2cccc(-c3ccccc3)c2n1Cc1ccc(Cl)c(Cl)c1 [compound 3] | 0.95 | 0.85 | 1 | 1.06 | 0.91 fold | 1.02 | 0.87 | 0.92 | 0.96 | 0.84 |  |  |  |  |  |  |  |
| CCCCCCOc1ccc(Cc2cnc(N)nc2N)cc1 [compound 1] | 1.11 | 1.19 | 0.96 | 1.07 | 1.24 fold | 1.06 | 0.9 | 1.13 | 0.89 | 0.99 |  |  |  |  |  |  |  |
| NCCCNc1ccc(C(=O)NC(CCC(=O)O)C(=O)O)cc1 (stereo not shown) [compound 7] |  | 0.85 |  | 1 |  | 1.28 | 0.96 |  |  |  | 1 | 0.92 | 0.94 | 1.03 | 0.98 | 0.96 |  |
| CCCCCCOc1cccc(Cc2cnc(N)nc2N)c1 [compound 2] | 1.24 | 1.79 | 1.02 | 1.13 |  | 1.23 | 1.05 | 1.13 | 1.02 | 1.12 |  |  |  |  |  |  | fold changes relative to vehicle control ([5]; HeLa, protein EIF5 (EUKARYOTIC TRANSLATION INITIATION FACTOR 5.)): 2.16 fold |
| NCCOCCOCC(=O)Nc1nc2ncc(CNc3ccc(C(=O)NC(CCC(=O)O)C(=O)O)cc3)nc2c(=O)[nH]1 (stereo not shown) [compound 6] |  | 1.15 |  | 1.07 |  | 0.96 | 0.99 |  |  |  | 1.05 | 0.84 | 1.64 | 1.09 | 0.82 | 0.84 |  |
| Nc1nc2[nH]cc(CCc3ccc(C(=O)N[C@@H](CCC(=O)O)C(=O)O)cc3)c2c(=O)[nH]1 [PTX, pemetrexed] |  |  |  |  | 1.05 |  |  |  |  |  |  |  |  |  |  |  | fold changes relative to vehicle control [1]: 1; fold changes relative to vehicle control [2]: 0.97; fold changes relative to vehicle control [3]: 0.86; fold changes relative to vehicle control [4]: 0.87; fold changes relative to vehicle control [6]: 0.98; fold changes relative to vehicle control [7]: 0.9; fold changes relative to vehicle control [8]: 0.88; fold changes relative to vehicle control [9]: 1; fold changes relative to vehicle control [10]: 0.89 |
| Nc1nc2c(c(=O)[nH]1)N(C=O)C(CNc1ccc(C(=O)N[C@@H](CCC(=O)O)C(=O)O)cc1)CN2 (stereo partly shown) [LEU, leucovorin] |  | 0.94 |  | 0.81 |  | 0.99 | 0.95 |  |  |  | 0.97 | 0.96 | 0.98 | 1.01 | 1 | 1.04 |  |
